Assay results published in the CheMixHub viscosity set.

Assay: xn = mol fraction of the nth substance listed
Details: 101.33 kPa

NCCCN + OCCOCCOCCOCCO
viscosity [mPa·s]
Details | 293.15 K | 298.15 K | 303.15 K | 308.15 K | 313.15 K | 318.15 K
x2 = 0.0197 | 2.27 | 1.95 | 1.76 | 1.6 | 1.31 | 1.26
x2 = 0.0407 | 2.72 | 2.32 | 2.08 | 1.86 | – | 1.48
x2 = 0.0631 | 3.37 | 2.84 | 2.52 | 2.25 | 1.97 | 1.75
x2 = 0.0871 | 4.07 | 3.41 | 2.99 | 2.64 | 2.34 | 2.08
x2 = 0.1129 | 5.06 | 4.2 | 3.64 | 3.21 | 2.83 | 2.48
x2 = 0.1406 | 6.38 | 5.25 | 4.48 | 3.92 | 3.42 | 3
x2 = 0.1705 | 8.2 | 6.64 | 5.62 | 4.86 | 4.2 | 3.62
x2 = 0.2028 | 10.6 | 8.44 | 7.08 | 6.05 | 5.2 | 4.42
x2 = 0.238 | 13.9 | 10.9 | 9.08 | 7.62 | 6.48 | 5.45
x2 = 0.2762 | 18.5 | 14.2 | 11.6 | 9.67 | 8.11 | 6.84
x2 = 0.3181 | 24.6 | 18.7 | 15.1 | 12.4 | 10.3 | 8.42
x2 = 0.3641 | 33.1 | 24.9 | 19.6 | 15.8 | 12.8 | 10.5
x2 = 0.4148 | 43.8 | 32.6 | 25.2 | 20.1 | 16.1 | 13
x2 = 0.4711 | 57.6 | 41.4 | 31.7 | 24.9 | 19.7 | 15.8
x2 = 0.5338 | 71.2 | 50.7 | 38.4 | 30 | 23.5 | 18.7
x2 = 0.6042 | 81.6 | 57.9 | 43.7 | 34 | 26.8 | 21
x2 = 0.6838 | 85.1 | 60.9 | 46 | 36 | 28.4 | 22.4
x2 = 0.7745 | 81.2 | 59.1 | 45 | 35.5 | 28.3 | 22.5
x2 = 0.8788 | 71.9 | 53.1 | 41 | 32.7 | 26.4 | 21.1
